1 molecule from US12331051B2 (priority 2021, dated 2025) can be followed below.

Holding throughout (test): Radioligand binding, cell membrane homogenates
In assay [1] the target is T1, Serotonin 2B receptor (5-HT2BR) (Homo sapiens, UniProt P41595).
T1 construct: expressed in transfected cells; host or cells: HEK-293
As for the experimental part:
(§1) Neuro-receptor binding and functional effects of the “E559 polymorph” was examined by analyzing binding affinity [Ki (nM)], functional agonist activity [EC50 (nM)], and functional antagonist activity [IC50 (nM)] against a panel of key receptors in neurophysiological disorders. Binding and functional assays were performed at “E559 polymorph” concentrations of 0.0003, 0.003, 0.01, 0.03, 0.1, 0.3, 1, and 10 μM. In binding assays, cell membrane homogenates, expressing each receptor target, were incubated with the corresponding radio-ligand in absence or presence of several concentration of the “E559 polymorph” compound. The measurement of binding affinity of the “E559 polymorph” is represented in TABLE XIII by Ki (nM) which was calculated as percent inhibition of the binding of a radioactively labeled reference ligand at each receptor. In functional assays the HEK-293 cells expressing each receptor target were suspended in buffer and distribute in microplates and incubated for 30 minutes at room temperature or 37° C. in the presence of buffer alone (basal control), the reference agonist or antagonist, or the “E559 polymorph. Following incubation, the cells were lysed and the appropriate fluorescent probe (Ca2+ flux, cAMP, or IP1) were added for 60 minutes to measure the fluorescence transfer at the appropriate wavelength using a microplate reader. The cellular agonist effect (EC50) was calculated as a percent of control response to a known reference agonist and the cellular antagonist effect (IC50) was calculated as a percent inhibition of control reference agonist response for each receptor.

The target in assay [2] is T2, Serotonin 2C receptor (5-HT2CR) (Homo sapiens, UniProt P28335).
T2 construct: expressed in transfected cells; host or cells: HEK-293
T2 sequence (P28335 33-458): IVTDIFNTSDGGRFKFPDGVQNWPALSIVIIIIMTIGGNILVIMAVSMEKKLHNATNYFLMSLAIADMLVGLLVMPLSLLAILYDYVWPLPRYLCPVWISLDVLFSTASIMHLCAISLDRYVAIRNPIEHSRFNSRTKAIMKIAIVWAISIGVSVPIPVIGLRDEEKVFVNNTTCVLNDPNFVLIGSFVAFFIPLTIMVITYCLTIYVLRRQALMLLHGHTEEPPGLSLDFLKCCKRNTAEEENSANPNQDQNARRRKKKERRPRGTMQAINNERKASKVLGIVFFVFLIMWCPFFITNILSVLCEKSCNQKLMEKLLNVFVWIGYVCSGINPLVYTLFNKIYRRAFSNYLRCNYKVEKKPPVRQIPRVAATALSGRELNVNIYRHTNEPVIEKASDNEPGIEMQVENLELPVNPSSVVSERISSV
As for the experimental part:
as §1

Assay [3] has as its target T3, Serotonin 1A receptor (5-HT1AR) (Homo sapiens, UniProt P08908).
T3 construct: expressed in transfected cells; host or cells: HEK-293
T3 sequence (P08908 1-422): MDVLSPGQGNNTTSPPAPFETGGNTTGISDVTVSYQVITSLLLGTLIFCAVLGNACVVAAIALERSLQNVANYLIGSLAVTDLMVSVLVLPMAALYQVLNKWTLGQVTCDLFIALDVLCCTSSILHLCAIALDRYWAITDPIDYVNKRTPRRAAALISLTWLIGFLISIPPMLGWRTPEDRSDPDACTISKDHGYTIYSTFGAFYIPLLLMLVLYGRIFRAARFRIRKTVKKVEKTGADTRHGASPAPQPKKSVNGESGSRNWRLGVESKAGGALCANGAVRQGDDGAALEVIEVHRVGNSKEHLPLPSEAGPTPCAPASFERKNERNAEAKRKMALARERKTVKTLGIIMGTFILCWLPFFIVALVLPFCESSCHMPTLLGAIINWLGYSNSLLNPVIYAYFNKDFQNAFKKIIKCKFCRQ
As for the experimental part: as §1

Assay [4] concerns the target T4, Alpha 2B adrenergic receptor (Homo sapiens, UniProt P18089).
T4 construct: expressed in transfected cells; host or cells: HEK-293
T4 sequence (P18089 1-450): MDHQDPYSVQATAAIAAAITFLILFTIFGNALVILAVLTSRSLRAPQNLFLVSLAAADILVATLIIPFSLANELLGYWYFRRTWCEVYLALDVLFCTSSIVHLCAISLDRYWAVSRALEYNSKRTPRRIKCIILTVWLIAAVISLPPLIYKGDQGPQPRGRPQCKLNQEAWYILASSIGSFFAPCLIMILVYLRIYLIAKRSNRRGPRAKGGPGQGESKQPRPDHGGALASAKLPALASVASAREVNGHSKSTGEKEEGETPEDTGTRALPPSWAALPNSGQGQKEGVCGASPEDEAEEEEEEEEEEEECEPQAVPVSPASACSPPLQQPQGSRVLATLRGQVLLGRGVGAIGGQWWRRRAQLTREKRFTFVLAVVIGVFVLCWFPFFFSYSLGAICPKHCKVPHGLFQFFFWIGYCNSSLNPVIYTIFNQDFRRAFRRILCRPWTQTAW
As for the experimental part:
as §1

Assay [5] concerns the target T5, Alpha 2C adrenergic receptor (Homo sapiens, UniProt P18825).
T5 construct: expressed in transfected cells; host or cells: HEK-293
T5 sequence (P18825 1-462): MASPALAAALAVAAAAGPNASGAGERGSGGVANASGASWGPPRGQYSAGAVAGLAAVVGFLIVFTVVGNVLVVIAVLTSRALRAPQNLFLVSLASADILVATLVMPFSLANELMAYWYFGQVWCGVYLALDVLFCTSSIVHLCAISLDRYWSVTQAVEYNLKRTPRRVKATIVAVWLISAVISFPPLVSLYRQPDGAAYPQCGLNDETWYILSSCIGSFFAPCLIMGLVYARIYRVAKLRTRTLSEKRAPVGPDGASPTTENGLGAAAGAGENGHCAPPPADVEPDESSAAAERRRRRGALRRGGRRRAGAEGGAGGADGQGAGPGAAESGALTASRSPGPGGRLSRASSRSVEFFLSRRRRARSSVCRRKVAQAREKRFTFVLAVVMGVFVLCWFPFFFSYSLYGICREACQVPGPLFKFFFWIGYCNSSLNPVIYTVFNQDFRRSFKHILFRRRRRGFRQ
As for the experimental part: as §1

Assay [6] addresses T6, Serotonin 1B receptor (5-HT1BR) (Homo sapiens, UniProt P28222).
T6 construct: expressed in transfected cells; host or cells: HEK-293
As for the experimental part: as §1

The target in a further assay is T7, D2S dopamine receptor (Homo sapiens, UniProt P14416).
T7 construct: expressed in transfected cells; host or cells: HEK-293
T7 sequence (P14416 1-414 isoform P14416-2): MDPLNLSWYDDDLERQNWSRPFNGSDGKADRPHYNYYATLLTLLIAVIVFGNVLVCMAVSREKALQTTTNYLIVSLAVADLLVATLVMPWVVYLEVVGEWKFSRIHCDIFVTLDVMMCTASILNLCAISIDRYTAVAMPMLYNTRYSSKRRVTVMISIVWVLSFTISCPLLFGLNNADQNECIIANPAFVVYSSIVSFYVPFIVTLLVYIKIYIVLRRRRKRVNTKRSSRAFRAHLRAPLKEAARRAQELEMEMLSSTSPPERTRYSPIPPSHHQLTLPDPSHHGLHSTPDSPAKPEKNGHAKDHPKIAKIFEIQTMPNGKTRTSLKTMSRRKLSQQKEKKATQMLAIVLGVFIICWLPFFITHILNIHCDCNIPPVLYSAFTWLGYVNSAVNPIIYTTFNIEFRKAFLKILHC
As for the experimental part: as §1

T6 sequence (P28222 whole entry): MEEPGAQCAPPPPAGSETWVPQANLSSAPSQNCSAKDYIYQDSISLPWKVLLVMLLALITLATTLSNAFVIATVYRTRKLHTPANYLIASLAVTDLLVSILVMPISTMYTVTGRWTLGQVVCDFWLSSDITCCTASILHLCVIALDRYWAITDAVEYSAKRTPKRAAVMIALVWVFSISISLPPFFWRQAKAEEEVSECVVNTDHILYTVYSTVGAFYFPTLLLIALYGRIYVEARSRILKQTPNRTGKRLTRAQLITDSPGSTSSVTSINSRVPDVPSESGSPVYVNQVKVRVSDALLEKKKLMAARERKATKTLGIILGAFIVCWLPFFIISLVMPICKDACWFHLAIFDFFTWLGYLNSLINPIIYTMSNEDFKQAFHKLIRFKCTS
T1 sequence (P41595 whole entry): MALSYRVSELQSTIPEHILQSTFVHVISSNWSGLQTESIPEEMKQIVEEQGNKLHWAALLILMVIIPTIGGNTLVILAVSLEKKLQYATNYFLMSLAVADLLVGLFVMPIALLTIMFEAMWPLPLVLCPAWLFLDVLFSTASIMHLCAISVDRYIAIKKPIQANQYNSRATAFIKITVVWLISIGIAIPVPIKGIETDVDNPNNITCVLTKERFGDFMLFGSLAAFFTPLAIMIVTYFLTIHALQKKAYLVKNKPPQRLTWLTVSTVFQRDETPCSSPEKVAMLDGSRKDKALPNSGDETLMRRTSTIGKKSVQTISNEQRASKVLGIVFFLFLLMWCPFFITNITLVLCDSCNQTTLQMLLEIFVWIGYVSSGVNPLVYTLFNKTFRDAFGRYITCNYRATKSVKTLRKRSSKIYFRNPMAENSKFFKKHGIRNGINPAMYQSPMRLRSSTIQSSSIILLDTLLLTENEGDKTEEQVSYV

For `CCN(CC)C(=O)[C@@H]1C=C2c3cccc4[nH]c(Br)c(c34)C[C@H]2N(C)C1` [E559, (5R, 8R)-2-Bromo-9,10-didehydro-N,N-diethyl-6-methylergoline-8-carboxamide hemi-D-tartrate], the Ki is 7 nM in assay [1]; 19 nM in assay [2]; 9.3 nM in assay [3]; 27 nM in assay [4]; 27 nM in assay [5]; 77 nM in assay [6]. In addition, on D2S dopamine receptor, the inhibition constant (Ki) turned out to be 2.1 nM.
